Experiments:
TNKS1 = target: T1, TNKS1 (Homo sapiens, UniProt O95271); assay: TNKS1 activity ELISA (autoparsylation assay); format: biochemical; details: GST-tagged Tnks-1 (1023-1327 aa)
T1 construct: GST-tagged Tnks-1 (1023-1327 aa, prepared in-house); made in house
Outline: (§1)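 Autoparsylation ELISA: biotinylated NAD serves as co-substrate for plate-bound GST-TNKS1/TNKS2, incubated with test compounds. Readout is HRP luminescence after streptavidin-HRP binding, referenced to the no-inhibitor reaction, from which IC50 values are derived.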

PARP-1 = target: T2, PARP-1 (Homo sapiens, UniProt P09874); assay: PARP-1 autoparsylation assay (HTRF); format: biochemical; details: His-tagged Parp-1, autoparsylation HTRF
T2 construct: purchased Enzo Life Sciences GmbH, Lörrach, Germany
T2 sequence (P09874 whole entry): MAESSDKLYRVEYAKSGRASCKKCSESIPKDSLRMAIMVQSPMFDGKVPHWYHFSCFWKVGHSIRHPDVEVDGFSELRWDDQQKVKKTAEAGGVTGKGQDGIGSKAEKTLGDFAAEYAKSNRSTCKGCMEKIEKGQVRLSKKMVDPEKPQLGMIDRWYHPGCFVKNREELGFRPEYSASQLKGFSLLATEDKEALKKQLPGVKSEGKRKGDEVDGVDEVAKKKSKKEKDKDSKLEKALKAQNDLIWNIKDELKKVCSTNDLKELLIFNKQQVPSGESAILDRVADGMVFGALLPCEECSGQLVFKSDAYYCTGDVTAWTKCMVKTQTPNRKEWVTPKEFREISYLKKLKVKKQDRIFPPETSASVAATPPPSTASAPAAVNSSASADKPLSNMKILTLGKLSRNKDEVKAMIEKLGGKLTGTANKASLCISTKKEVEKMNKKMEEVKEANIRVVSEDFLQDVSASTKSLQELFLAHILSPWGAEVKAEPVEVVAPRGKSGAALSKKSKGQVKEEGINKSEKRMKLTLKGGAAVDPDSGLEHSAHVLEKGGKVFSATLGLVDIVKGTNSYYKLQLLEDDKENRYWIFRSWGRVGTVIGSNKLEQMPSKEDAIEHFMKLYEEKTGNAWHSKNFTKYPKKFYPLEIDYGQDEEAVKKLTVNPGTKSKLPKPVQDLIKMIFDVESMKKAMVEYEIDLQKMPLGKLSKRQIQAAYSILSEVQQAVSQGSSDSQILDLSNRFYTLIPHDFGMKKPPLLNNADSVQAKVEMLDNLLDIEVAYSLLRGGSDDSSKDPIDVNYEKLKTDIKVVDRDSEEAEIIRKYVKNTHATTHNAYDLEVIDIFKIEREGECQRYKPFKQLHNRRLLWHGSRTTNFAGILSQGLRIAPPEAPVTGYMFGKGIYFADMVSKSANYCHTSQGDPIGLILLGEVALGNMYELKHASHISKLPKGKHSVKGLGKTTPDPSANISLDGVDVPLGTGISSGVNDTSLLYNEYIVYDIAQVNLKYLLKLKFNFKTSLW
Outline: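 HTRF emission ratio reports biotin-ADP-ribose self-transfer onto His-tagged PARP-1, with biotinylated NAD/NAD as co-substrate, sensed via cryptate anti-His and Xlent-streptavidin.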

TNKS2 = target: T3, TNKS2 (Homo sapiens, UniProt Q9H2K2); assay: TNKS2 activity ELISA (autoparsylation assay); format: biochemical; details: GST-tagged Tnks-2 (873-1166 aa); read-out: IC50 [M] TNKS2 ELISA
T3 construct: GST-tagged Tnks-2 (873-1166 aa, prepared in-house); made in house
T3 sequence (Q9H2K2 873-1166): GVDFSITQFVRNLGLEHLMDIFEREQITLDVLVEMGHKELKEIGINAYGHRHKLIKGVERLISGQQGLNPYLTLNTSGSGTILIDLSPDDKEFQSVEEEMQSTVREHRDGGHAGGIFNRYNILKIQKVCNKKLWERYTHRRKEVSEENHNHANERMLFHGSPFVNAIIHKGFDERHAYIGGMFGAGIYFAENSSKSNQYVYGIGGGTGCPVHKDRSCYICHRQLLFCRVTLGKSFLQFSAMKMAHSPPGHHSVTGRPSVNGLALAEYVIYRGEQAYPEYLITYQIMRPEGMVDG
Outline: as §1

Tankyrases = details: read-out: EC50 [M] TNKS cellular assay; DLD1 cells, 24 hours, Axin2 increase

T1 sequence (O95271 1023-1327): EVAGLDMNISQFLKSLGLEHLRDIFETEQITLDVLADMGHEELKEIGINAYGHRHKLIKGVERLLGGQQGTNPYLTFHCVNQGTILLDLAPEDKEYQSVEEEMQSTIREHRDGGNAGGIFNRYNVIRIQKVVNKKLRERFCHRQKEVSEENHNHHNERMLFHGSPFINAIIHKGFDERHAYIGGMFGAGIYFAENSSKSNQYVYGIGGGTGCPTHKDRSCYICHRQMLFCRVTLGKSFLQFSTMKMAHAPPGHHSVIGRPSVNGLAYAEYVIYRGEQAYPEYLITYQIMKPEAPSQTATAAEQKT

Row | Compound | IC50 (TNKS1) | IC50 (PARP-1) | IC50 (TNKS2) | EC50 (Tankyrases)
1 | Cn1ncc2c(=O)[nH]c(CCCC(=O)N3CCC(C(=O)c4ccc(Cl)cc4)CC3)nc21 [Compound C236, 6-{4-[4-(4-Chloro-benzoyl)-piperidin-1-yl]-4-oxo-butyl}-1-methyl-1,5-dihydro-pyrazolo[3,4-d]pyrimidin-4-one] | 0.48 nM | 10000 nM | 2.4e-10 M | 2.1e-08 M
2 | COc1ccc(C(=O)C2CCN(C(=O)CCCc3nc4c(cnn4C)c(=O)[nH]3)CC2)cc1C [Compound C49, 6-{4-[4-(4-Methoxy-3-methyl-benzoyl)-piperidin-1-yl]-4-oxo-butyl}-1-methyl-1,5-dihydro-pyrazolo[3,4-d]pyrimidin-4-one] | 0.16 nM | 9900 nM | 1.4e-10 M | 3.1e-10 M
3 | Cn1cc(C(=O)C2CCN(C(=O)CCCc3nc4c(ccn4C)c(=O)[nH]3)CC2)cn1 [Compound C190, 7-Methyl-2-{4-[4-(1-methyl-1H-pyrazole-4-carbonyl)-piperidin-1-yl]-4-oxo-butyl}-3,7-dihydro-pyrrolo[2,3-d]pyrimidin-4-one] | 0.71 nM | 870 nM | 3.2e-10 M | 1.9e-07 M
4 | COc1ccc(C(=O)C2CCN(C(=O)CCCc3nn4cccc4c(=O)[nH]3)CC2)cc1 [Compound C36, 2-{4-[4-(4-Methoxy-benzoyl)-piperidin-1-yl]-4-oxo-butyl}-3H-pyrrolo[2,1-f][1,2,4]triazin-4-one] | 0.39 nM | 3500 nM | 2.8e-10 M | 4.1e-09 M
5 | COc1ccc(C(=O)C2CCN(C(=O)CCCc3nc4c(ccn4C)c(=O)[nH]3)CC2)cn1 [Compound C181, 2-{4-[4-(6-Methoxy-pyridine-3-carbonyl)-piperidin-1-yl]-4-oxo-butyl}-7-methyl-3,7-dihydro-pyrrolo[2,3-d]pyrimidin-4-one] | 0.65 nM | 2300 nM | 2.4e-10 M | 7.3e-09 M
6 | N#Cc1ccc(OC2CCN(C(=O)CCCc3nc4c(c(=O)[nH]3)COCC4)CC2)cc1 [Compound C197, 4-{1-[4-(4-Oxo-3,5,7,8-tetrahydro-4H-pyrano[4,3-d]pyrimidin-2-yl)-butyryl]-piperidin-4-yloxy}-benzonitrile] | 560 nM | 3200 nM | 2.4e-07 M | 3.6e-06 M
7 | Cc1cc2c(=O)[nH]c(CCCC(=O)N3CCC(C(=O)c4cnn(C)c4)CC3)cn2n1 [Compound C209, 2-Methyl-6-{4-[4-(1-methyl-1H-pyrazole-4-carbonyl)-piperidin-1-yl]-4-oxo-butyl}-5H-pyrazolo[1,5-a]pyrazin-4-one] | 0.76 nM | 8500 nM | 7.9e-10 M | 1e-08 M
8 | CCn1cc(C(=O)C2CCN(C(=O)CCCc3nc4c(ccn4C)c(=O)[nH]3)CC2)cn1 [Compound C243, 2-{4-[4-(1-Ethyl-1H-pyrazole-4-carbonyl)-piperidin-1-yl]-4-oxo-butyl}-7-methyl-3,7-dihydro-pyrrolo[2,3-d]pyrimidin-4-one] | 0.47 nM | 4200 nM | 2.2e-10 M | 3.4e-08 M
9 | COc1ccc(C(=O)C2CCN(C(=O)CCCc3nn4c(C)ccc4c(=O)[nH]3)CC2)cc1C [Compound C154, 2-{4-[4-(4-Methoxy-3-methyl-benzoyl)-piperidin-1-yl]-4-oxo-butyl}-7-methyl-3H-pyrrolo[2,1-f][1,2,4]triazin-4-one] | 0.16 nM | 610 nM | 1.3e-10 M | 9.7e-10 M
10 | Nc1ncc(C2CCN(C(=O)CCCc3nn4cc(F)cc4c(=O)[nH]3)CC2)cc1-c1ncccn1 [Compound C172, 2-[4-(6-Amino-5-pyrimidin-2-yl-3′,4′,5′,6′-tetrahydro-2′H-[3,4′]bipyridinyl-1′-yl)-4-oxo-butyl]-6-fluoro-3H-pyrrolo[2,1-f][1,2,4]triazin-4-one] | 0.61 nM | 2500 nM | 5.3e-10 M | 6.8e-09 M
11 | Cn1ccc2c(=O)[nH]c(CCCC(=O)N3CCC(C(=O)c4ccc(F)cc4)CC3)nc21 [Compound C186, 2-{4-[4-(4-Fluoro-benzoyl)-piperidin-1-yl]-4-oxo-butyl}-7-methyl-3,7-dihydro-pyrrolo[2,3-d]pyrimidin-4-one] | 0.41 nM | 1200 nM | 1.9e-09 M | 1.4e-08 M
12 | COc1ccc(C(=O)C2CCN(C(=O)CCCc3cn4nc(C)cc4c(=O)[nH]3)CC2)cn1 [Compound C231, 6-{4-[4-(6-Methoxy-pyridine-3-carbonyl)-piperidin-1-yl]-4-oxo-butyl}-2-methyl-5H-pyrazolo[1,5-a]pyrazin-4-one] | 0.36 nM | 4500 nM | 5.4e-10 M | 5.4e-09 M
13 | CC(C)(O)c1ccc(C(=O)C2CCN(C(=O)CCCc3nn4cccc4c(=O)[nH]3)CC2)cc1 [Compound C144, 2-(4-{4-[4-(1-Hydroxy-1-methyl-ethyl)-benzoyl]-piperidin-1-yl}-4-oxo-butyl)-3H-pyrrolo[2,1-f][1,2,4]triazin-4-one] | 7.3 nM | 11000 nM | 3.5e-09 M | 8.3e-08 M
14 | CCn1cc(C(=O)C2CCN(C(=O)CCCc3nc4c(cnn4C)c(=O)[nH]3)CC2)cn1 [Compound C213, 6-{4-[4-(1-Ethyl-1H-pyrazole-4-carbonyl)-piperidin-1-yl]-4-oxo-butyl}-1-methyl-1,5-dihydro-pyrazolo[3,4-d]pyrimidin-4-one] | 1.2 nM | 11000 nM | 5.2e-10 M | 8.6e-08 M
15 | Cc1ccc2c(=O)[nH]c(CCCC(=O)N3CCC(C(=O)c4cnn(C(C)C)c4)CC3)nn12 [Compound C223, 2-{4-[4-(1-Isopropyl-1H-pyrazole-4-carbonyl)-piperidin-1-yl]-4-oxo-butyl}-7-methyl-3H-pyrrolo[2,1-f][1,2,4]triazin-4-one] | 0.6 nM | 840 nM | 5.1e-10 M | 3.3e-09 M
16 | Cc1cc2c(=O)[nH]c(CCCC(=O)N3CCC(C(=O)c4cnn(C(C)C)c4)CC3)cn2n1 [Compound C217, 6-{4-[4-(1-Isopropyl-1H-pyrazole-4-carbonyl)-piperidin-1-yl]-4-oxo-butyl}-2-methyl-5H-pyrazolo[1,5-a]pyrazin-4-one] | 2 nM | 6600 nM | 2.7e-09 M | 3e-08 M
17 | Cc1scc2c(=O)[nH]c(CCCC(=O)N3CCC(C(=O)c4cnn(C)c4)CC3)nc12 [Compound C123, 7-Methyl-2-{4-[4-(1-methyl-1H-pyrazole-4-carbonyl)-piperidin-1-yl]-4-oxo-butyl}-3H-thieno[3,4-d]pyrimidin-4-one] | 0.67 nM | 1200 nM | 5.7e-10 M | 3.4e-09 M
18 | COc1ccc(C(=O)C2CCN(C(=O)CCCc3nn4cc(C)cc4c(=O)[nH]3)CC2)cc1 [Compound C38, 2-{4-[4-(4-Methoxy-benzoyl)-piperidin-1-yl]-4-oxo-butyl}-6-methyl-3H-pyrrolo[2,1-f][1,2,4]triazin-4-one] | 0.28 nM | 2400 nM | 1.1e-10 M | 5.4e-09 M
19 | COc1ccc(C(=O)C2CN(C(=O)CCCc3cn4cccc4c(=O)[nH]3)C2)cc1 [Compound D1, 3-{4-[3-(4-Methoxy-benzoyl)-azetidin-1-yl]-4-oxo-butyl}-2H-pyrrolo[1,2-a]pyrazin-1-one] | 120 nM | 3100 nM | 8.5e-08 M | 5.4e-07 M

— patent US9809598B2 (Merck Patent GmbH, priority 2014, dated 2017)
